Reference: PMC8211267, “Potent PDE4 inhibitor activates AMPK and Sirt1 to induce mitochondrial biogenesis” (PLoS ONE, 2021)

Biological target: PDE4D (Homo sapiens, UniProt Q08499)
Test: recombinant PDE4 activity assay, [3H]cAMP hydrolysis, dose-response
Format: biochemical

Chain of PDE4D (Q08499 whole entry): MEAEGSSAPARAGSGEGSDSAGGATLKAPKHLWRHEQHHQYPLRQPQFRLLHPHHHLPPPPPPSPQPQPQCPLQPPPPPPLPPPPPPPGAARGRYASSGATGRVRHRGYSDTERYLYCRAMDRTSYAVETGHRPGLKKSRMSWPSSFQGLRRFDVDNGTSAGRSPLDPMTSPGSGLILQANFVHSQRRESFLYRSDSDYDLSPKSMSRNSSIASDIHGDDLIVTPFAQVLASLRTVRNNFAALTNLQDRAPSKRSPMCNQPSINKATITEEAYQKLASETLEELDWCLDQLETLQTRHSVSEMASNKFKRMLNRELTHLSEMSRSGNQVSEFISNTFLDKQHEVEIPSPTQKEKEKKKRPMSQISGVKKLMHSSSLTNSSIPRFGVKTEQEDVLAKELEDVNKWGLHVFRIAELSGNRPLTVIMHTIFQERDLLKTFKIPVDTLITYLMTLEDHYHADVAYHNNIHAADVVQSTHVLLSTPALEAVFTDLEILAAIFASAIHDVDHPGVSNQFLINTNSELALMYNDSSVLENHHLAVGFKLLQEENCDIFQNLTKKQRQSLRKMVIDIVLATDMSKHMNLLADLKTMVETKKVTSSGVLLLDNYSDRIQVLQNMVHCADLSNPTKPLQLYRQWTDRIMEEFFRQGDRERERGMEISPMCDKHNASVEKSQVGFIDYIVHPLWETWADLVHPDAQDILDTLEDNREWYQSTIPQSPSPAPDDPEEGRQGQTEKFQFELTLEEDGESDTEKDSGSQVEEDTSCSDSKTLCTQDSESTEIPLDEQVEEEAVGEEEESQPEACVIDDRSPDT

- IC50: ~450 nM
Compound: COc1ccc(C(=O)Nc2ccccc2C)cc1OC [CBU91, 3,4-dimethoxy-N-(o-tolyl)benzamide]
